# Where two headings read alike, the source gives them in different places.
# Experiments:
# [1] = target: T1, Human Tryptophan 2,3-dioxygenase (TDO) (Homo sapiens, UniProt P48775); experiment: Human TDO enzymatic assay (kynurenine level); type: biochemical
# T1 construct: His tag (N); made in house; host or cells: E. coli
# Summary of the method: (§1)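 Kynurenine formed is measured after TCA quench and 50 °C hydrolysis, with % inhibition against full-reaction and no-enzyme controls (5% DMSO). IDO: 6 nM enzyme, 10 μM L-Trp, 5 μM methylene blue, 20 min; TDO: 1 nM, 350 μM L-Trp, 0.4 μM methylene blue, 70 min; both pH 6.5, room temp, E. coli-expressed His-tagged.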
# [2] = target: T2, human IDO (IDO1-expressing HEK293 cells) (Homo sapiens, UniProt P14902); experiment: Cell based kynurenine assay, IDO1-expressing HEK293 cell clones
# T2 construct: expressed in transfected cells
# Summary of the method: (§2)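 IC50 values come from nonlinear regression of kynurenine reduction in supernatants of human IDO1- or TDO-expressing HEK293 cells incubated 24 h with serially diluted compounds, normalised to cell and media-only controls containing 0.2% DMSO.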
# [3] = target: T3, human TDO (TDO-expressing HEK293 cells) (Homo sapiens, UniProt P48775); experiment: Cell based kynurenine assay, TDO-expressing HEK293 cell clones
# T3 construct: expressed in transfected cells
# Summary of the method: as §2
# [4] = target: T4, Human Indoleamine 2,3-dioxygenase (IDO) (Homo sapiens, UniProt P14902); experiment: Human IDO enzymatic assay (kynurenine level); type: biochemical
# T4 construct: His tag (N); made in house; host or cells: E. coli
# Summary of the method: as §1
# [5] = 1 nM TDO, 350 μM L-Trp, geometric mean, read-out: TDO GMean: IC50 (μM) (Biochemical Assay)
# [6] = IDO1-expressing HEK293 cells, 24 hours, geometric mean, read-out: HEK293 IDO1 Kynurenine GMean IC50 (μM) (Cellular Assay)
# [7] = TDO-expressing HEK293 cells, 24 hours, geometric mean, read-out: HEK293 TDO Kynurenine GMean IC50 (μM) (Cellular Assay)
# [8] = 6 nM IDO, 10 μM L-Trp, geometric mean, read-out: IDO1 GMean: IC50 (μM) (Biochemical Assay)
# [9] = IDO1-expressing HEK293 cells, 24 hours incubation, geometric mean, read-out: HEK293 IDO1 Kynurenine GMean IC50 (μM) (Cellular Assay)
# [10] = TDO-expressing HEK293 cells, 24 hours incubation, geometric mean, read-out: HEK293 TDO Kynurenine GMean IC50 (μM) (Cellular Assay)
# T3 sequence (P48775 whole entry): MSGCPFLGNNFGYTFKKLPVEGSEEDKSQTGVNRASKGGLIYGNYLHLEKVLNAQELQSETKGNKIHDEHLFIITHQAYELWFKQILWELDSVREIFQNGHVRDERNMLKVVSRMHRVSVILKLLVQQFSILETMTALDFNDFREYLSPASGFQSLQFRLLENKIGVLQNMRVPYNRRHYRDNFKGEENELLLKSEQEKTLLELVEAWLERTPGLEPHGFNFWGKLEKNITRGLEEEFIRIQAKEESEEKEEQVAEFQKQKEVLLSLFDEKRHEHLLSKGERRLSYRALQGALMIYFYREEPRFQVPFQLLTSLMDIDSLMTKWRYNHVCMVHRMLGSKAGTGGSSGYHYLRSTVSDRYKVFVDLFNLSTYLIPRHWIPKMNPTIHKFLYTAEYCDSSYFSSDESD
# T1 sequence (P48775 whole entry): as above
# T4 sequence (P14902 whole entry): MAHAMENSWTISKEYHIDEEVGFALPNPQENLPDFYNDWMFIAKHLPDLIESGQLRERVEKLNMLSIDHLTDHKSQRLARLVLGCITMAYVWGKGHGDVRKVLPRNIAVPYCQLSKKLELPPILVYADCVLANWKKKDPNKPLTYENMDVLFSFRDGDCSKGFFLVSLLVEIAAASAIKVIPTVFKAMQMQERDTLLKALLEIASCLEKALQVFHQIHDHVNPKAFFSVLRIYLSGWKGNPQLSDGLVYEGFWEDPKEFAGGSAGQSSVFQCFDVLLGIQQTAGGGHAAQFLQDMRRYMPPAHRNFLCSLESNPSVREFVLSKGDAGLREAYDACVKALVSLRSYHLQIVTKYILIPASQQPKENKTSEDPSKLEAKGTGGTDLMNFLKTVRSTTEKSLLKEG
# T2 sequence (P14902 whole entry): as above
SMILES,"IC50 [1, 5]","IC50 [2, 6]","IC50 [3, 7]","IC50 [4, 8]","IC50 [2, 9]","IC50 [3, 10]","IC50 ([1]; biochemical assay, comparative examples, 4,6 versus 5,7 indazole, read-out: TDO)","IC50 ([2]; cellular assay, HEK293, 24 hours, comparative examples, read-out: hIDO1)","IC50 ([3]; cellular assay, HEK293, 24 hours, comparative examples, read-out: hTDO)","IC50 ([4]; biochemical assay, comparative examples, 4,6 versus 5,7 indazole, read-out: IDO1)"
"CN(C)CC(=O)N1CCC(C(C)(C)C(O)c2cc(Cl)cc3cn[nH]c23)CC1 (stereo not shown) [Compound P-0455, 1-(4-(1-(5-chloro-1H-indazol-7-yl)-1-hydroxy-2-methylpropan-2-yl)piperidin-1-yl)-2-(dimethylamino) ethan-1-one]",0.0001 to 10 µM,0.0001 to 10 µM,0.0001 to 10 µM,0.0001 to 10 µM,–,–,–,–,–,–
"CC(C)(C1CCN(C(=O)NC2CCC2)CC1)C(O)c1cc(Cl)cc2cn[nH]c12 (stereo not shown) [Compound P-0387, 4-(1-(5-chloro-1H-indazol-7-yl)-1-hydroxy-2-methylpropan-2-yl)-N-cyclobutylpiperidine-1-carboxamide]",0.0001 to 10 µM,–,–,0.0001 to 10 µM,0.0001 to 10 µM,0.0001 to 10 µM,–,–,–,–
"CC(C)(C1CCN(C(=O)C2CC2)CC1)C(O)c1c(F)c(Cl)cc2cn[nH]c12 (stereo not shown) [Compound P-0416, (4-(1-(5-chloro-6-fluoro-1H-indazol-7-yl)-1-hydroxy-2-methylpropan-2-yl)piperidin-1-yl)(cyclopropyl) methanone]",0.0001 to 10 µM,0.0001 to 10 µM,0.0001 to 10 µM,0.0001 to 10 µM,–,–,–,–,–,–
"CC(C)(C1CCN(C(=O)Nc2cccc(C(F)(F)F)c2)CC1)C(O)c1cc(Cl)cc2cn[nH]c12 (stereo not shown) [Compound P-0400, 4-(1-(5-chloro-1H-indazol-7-yl)-1-hydroxy-2-methylpropan-2-yl)-N-(3-(trifluoromethyl)phenyl)piperidine-1-carboxamide]",0.0001 to 10 µM,–,–,0.0001 to 10 µM,0.0001 to 10 µM,0.0001 to 10 µM,–,–,–,–
"CC(C)(C1CCN(S(=O)(=O)c2ccccc2)CC1)C(O)c1cc(Cl)cc2cn[nH]c12 (stereo not shown) [Compound P-0309, 1-(5-chloro-1H-indazol-7-yl)-2-methyl-2-(1-(phenylsulfonyl)piperidin-4-yl)propan-1-ol]",0.0001 to 10 µM,–,–,0.0001 to 10 µM,0.0001 to 10 µM,0.0001 to 10 µM,–,–,–,–
"O=C(NCC1(O)CC1)N1CCC(C(F)(F)C(O)c2cc(Cl)cc3cn[nH]c23)CC1 (stereo not shown) [Compound P-0465, 4-(2-(5-chloro-1H-indazol-7-yl)-1,1-difluoro-2-hydroxyethyl)-N-((1-hydroxycyclopropyl)methyl)piperidine-1-carboxamide]",0.0001 to 10 µM,0.0001 to 10 µM,0.0001 to 10 µM,0.0001 to 10 µM,–,–,–,–,–,–
"CC(C)(C1CCCCC1)C(O)c1c(F)c(Cl)c(F)c2cn[nH]c12 (stereo not shown) [Compound P-0253, 1-(5-chloro-4,6-difluoro-1H-indazol-7-yl)-2-cyclohexyl-2-methylpropan-1-ol]",0.0001 to 10 µM,–,–,0.0001 to 10 µM,0.0001 to 10 µM,0.0001 to 10 µM,–,–,–,–
"CNC(=O)N1CCC(C(C)(C)C(O)c2cc(Cl)cc3cn[nH]c23)CC1 (stereo not shown) [Compound P-0314, 4-(1-(5-chloro-1H-indazol-7-yl)-1-hydroxy-2-methylpropan-2-yl)-N-methylpiperidine-1-carboxamide]",0.0001 to 10 µM,–,–,0.0001 to 10 µM,0.0001 to 10 µM,0.0001 to 10 µM,–,–,–,–
"CC1(C(O)c2cc(Br)cc3cn[nH]c23)CCCCC1 (stereo not shown) [Compound P-0263, (5-bromo-1H-indazol-7-yl)(1-methylcyclohexyl)methanol]",0.0001 to 10 µM,–,–,0.0001 to 10 µM,0.0001 to 10 µM,0.0001 to 10 µM,–,–,–,–
OC1(c2cc(Cl)cc3cn[nH]c23)CC2(CCOCC2)C1 [drawing 820],–,–,–,–,–,–,0.22 µM,0.4 µM,2.41 µM,0.16 µM
"CN(C)CCC(=O)N1CCC(C(C)(C)C(O)c2cc(Cl)cc3cn[nH]c23)CC1 (stereo not shown) [Compound P-0456, 1-(4-(1-(5-chloro-1H-indazol-7-yl)-1-hydroxy-2-methylpropan-2-yl)piperidin-1-yl)-3-(dimethylamino) propan-1-one]",0.0001 to 10 µM,0.0001 to 10 µM,0.0001 to 10 µM,0.0001 to 10 µM,–,–,–,–,–,–
"OC(c1cccc2cncn12)C1CCC(F)(F)CC1 (stereo not shown) [Compound P-0081, (4,4-difluorocyclohexyl)(imidazo[1,5-a]pyridin-5-yl)methanol]",0.0001 to 10 µM,–,–,0.0001 to 10 µM,> 10 µM,> 10 µM,–,–,–,–
"CC(C)(O)CNC(=O)N1CCC(C(C)(C)C(O)c2cc(Cl)cc3cn[nH]c23)CC1 (stereo not shown) [Compound P-0475, 4-(1-(5-chloro-1H-indazol-7-yl)-1-hydroxy-2-methylpropan-2-yl)-N-(2-hydroxy-2-methylpropyl) piperidine-1-carboxamide]",0.0001 to 10 µM,0.0001 to 10 µM,0.0001 to 10 µM,0.0001 to 10 µM,–,–,–,–,–,–
"CC(C)(C1CCN(C(=O)CC2CC2)CC1)C(O)c1cc(Cl)cc2cn[nH]c12 (stereo not shown) [Compound P-0410, 1-(4-(1-(5-chloro-1H-indazol-7-yl)-1-hydroxy-2-methylpropan-2-yl)piperidin-1-yl)-2-cyclopropylethan-1-one]",0.0001 to 10 µM,0.0001 to 10 µM,0.0001 to 10 µM,0.0001 to 10 µM,–,–,–,–,–,–
"OC1(c2c(Cl)c(Cl)cc3cn[nH]c23)CC2(CCC2)C1 [Compound P-0036, 2-(5,6-dichloro-1H-indazol-7-yl)spiro[3.3]heptan-2-ol]",0.0001 to 10 µM,–,–,0.0001 to 10 µM,0.0001 to 10 µM,> 10 µM,–,–,–,–
"OC(c1cc(F)cc2cn[nH]c12)C1CCCCC1 (stereo not shown) [Compound P-0042, cyclohexyl(5-fluoro-1H-indazol-7-yl)methanol]",0.0001 to 10 µM,–,–,0.0001 to 10 µM,0.0001 to 10 µM,0.0001 to 10 µM,–,–,–,–
"CC(C)(C)OC(=O)N1CCC(C(C)(C)[C@@H](O)c2cc(Cl)cc3cn[nH]c23)CC1 [Compound P-0338, tert-butyl (R)-4-(1-(5-chloro-1H-indazol-7-yl)-1-hydroxy-2-methylpropan-2-yl)piperidine-1-carboxylate]",0.0001 to 10 µM,–,–,0.0001 to 10 µM,> 10 µM,0.0001 to 10 µM,–,–,–,–
"CC(C)(C1CCN(C(=O)NCCC(F)(F)F)CC1)[C@H](O)c1cc(Cl)cc2cn[nH]c12 [Compound P-0561, (S)-4-(1-(5-chloro-1H-indazol-7-yl)-1-hydroxy-2-methylpropan-2-yl)-N-(3,3,3-trifluoropropyl) piperidine-1-carboxamide]",0.0001 to 10 µM,0.0001 to 10 µM,0.0001 to 10 µM,0.0001 to 10 µM,–,–,–,–,–,–
"O=C(CC1CC1)N1CCC(C(F)(F)C(O)c2cc(Cl)cc3cn[nH]c23)CC1 (stereo not drawn) [Compound P-0149, 1-(4-(2-(5-chloro-1H-indazol-7-yl)-1,1-difluoro-2-hydroxyethyl)piperidin-l-yl)-2-cyclopropylethan-1-one]",0.0001 to 10 µM,–,–,0.0001 to 10 µM,0.0001 to 10 µM,0.0001 to 10 µM,–,–,–,–
"OC(c1cc(Cl)cc2cn[nH]c12)C1(C2CC2)CC1 (stereo not shown) [Compound P-0225, [1,1′-bi(cyclopropan)]-1-yl(5-chloro-1H-indazol-7-yl)methanol]",0.0001 to 10 µM,–,–,0.0001 to 10 µM,0.0001 to 10 µM,0.0001 to 10 µM,–,–,–,–
"CN(C)CC(=O)N1CCC(C(C)(C)[C@H](O)c2cc(Cl)cc3cn[nH]c23)CC1 [Compound P-0547, (S)-1-(4-(1-(5-chloro-1H-indazol-7-yl)-1-hydroxy-2-methylpropan-2-yl)piperidin-1-yl)-2-(dimethylamino) ethan-1-one]",0.0001 to 10 µM,0.0001 to 10 µM,0.0001 to 10 µM,0.0001 to 10 µM,–,–,–,–,–,–
"CC1(C(O)c2c(F)c(Cl)c(F)c3cn[nH]c23)CC(F)(F)C1 (stereo not shown) [Compound P-0112, (5-chloro-4,6-difluoro-1H-indazol-7-yl)(3,3-difluoro-1-methylcyclobutyl)methanol]",0.0001 to 10 µM,–,–,0.0001 to 10 µM,0.0001 to 10 µM,0.0001 to 10 µM,–,–,–,–
